# Results reported in patent US9315522B2, “Antibacterial compounds” (JANSSEN SCIENCES IRELAND UC, priority 2012, dated 2016).
# Biological target: T1, S. aureus ATCC 29213 FabI (Staphylococcus aureus, UniProt Q6GI75)
# T1 sequence (Q6GI75 1-256): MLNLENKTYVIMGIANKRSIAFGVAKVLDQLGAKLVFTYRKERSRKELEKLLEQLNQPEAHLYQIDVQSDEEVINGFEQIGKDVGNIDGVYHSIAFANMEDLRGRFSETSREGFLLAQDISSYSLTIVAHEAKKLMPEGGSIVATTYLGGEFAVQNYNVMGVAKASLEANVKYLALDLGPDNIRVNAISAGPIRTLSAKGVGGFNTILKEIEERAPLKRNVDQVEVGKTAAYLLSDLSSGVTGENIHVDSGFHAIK
# Test: Staphylococcus aureus FabI enzyme inhibition assay
# Type: biochemical
# Conditions: read-out: FabI (300.235) IC50 (converted)
# Outline: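 S. aureus ATCC 29213 FabI (50 μg/ml) with 250 μM crotonoyl-CoA and 625 μM NADH in 100 mM NaADA pH 6.5, inhibitor 50–0.39 μM, 30 min at room temperature. Stopped by Tris pH 9.0 shift; NADH at 340 nm versus no-compound and no-enzyme controls; IC50 in μg/ml.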
row,Compound,IC50 [nM]
1,O=C1CNCc2cc(/C=C/C(=O)N3CC4C=C(c5ccccc5)CC4C3)cnc2N1 (stereo not shown) [Cpd. No. 38],1050
2,O=C1Nc2ncc(/C=C/C(=O)N3CC4C=C(c5nccs5)CC4C3)cc2CN2CCOCC12 (stereo not shown) [Cpd. No. 74],992
3,O=C1COc2cc(/C=C/C(=O)N3CC4C=C(c5ccccc5)CC4C3)cnc2N1 (stereo not shown) [compound 37],~1160

# System: Staphylococcus aureus ATCC 29213
# Test: Antibacterial susceptibility testing, IC90 determination (STA)
# Type: cell-based
# Conditions: Staphylococcus aureus, ATCC29213, Staphylococcus aureus ATCC 29213, broth microdilution, resazurin; read-out: STA (361.159) IC90
# Outline: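 S. aureus ATCC 29213 tested by broth microdilution in Mueller-Hinton broth, 5×10^5 CFU/ml, two-fold compound dilutions typically 63 to 0.49 μM, 1.25% DMSO, 16-20 h at 35° C. Growth read fluorometrically with resazurin (ex 540/em 590 nm); IC90 in μg/ml is 90% growth-inhibitory concentration.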
row,Compound,IC90 [µg/mL]
1,O=C1CNCc2cc(/C=C/C(=O)N3CC4C=C(c5ccccc5)CC4C3)cnc2N1 (stereo not shown) [Cpd. No. 38],< 0.19
2,O=C1Nc2ncc(/C=C/C(=O)N3CC4C=C(c5nccs5)CC4C3)cc2CN2CCOCC12 (stereo not shown) [Cpd. No. 74],< 0.23
3,O=C1COc2cc(/C=C/C(=O)N3CC4C=C(c5ccccc5)CC4C3)cnc2N1 (stereo not shown) [compound 37],< 0.19

# System: S. aureus
# Test: Antibacterial susceptibility testing, IC90 determination with 10% human serum (STA + 10% HS)
# Type: cell-based, Staphylococcus aureus
# Conditions: Staphylococcus aureus, human serum at final concentration of 10%, read-out: STA + 10% HS (361.169) IC90
# Outline: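 Broth microdilution in Mueller-Hinton broth with 10% human serum, 5×10^5 CFU/ml S. aureus, two-fold compound dilutions (typically 63 to 0.49 μM), 1.25% DMSO, 16-20 h at 35° C. Growth read fluorometrically with resazurin (ex 540/em 590 nm); IC90 in μg/ml is the 90% growth-inhibitory concentration.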
row,Compound,IC90 [µg/mL]
1,O=C1CNCc2cc(/C=C/C(=O)N3CC4C=C(c5ccccc5)CC4C3)cnc2N1 (stereo not shown) [Cpd. No. 38],0.24
2,O=C1Nc2ncc(/C=C/C(=O)N3CC4C=C(c5nccs5)CC4C3)cc2CN2CCOCC12 (stereo not shown) [Cpd. No. 74],< 0.23
3,O=C1COc2cc(/C=C/C(=O)N3CC4C=C(c5ccccc5)CC4C3)cnc2N1 (stereo not shown) [compound 37],0.25

# System: not listed separately
# Test: Cytotoxicity MTT assay (HELAM)
# Type: cell-based, Human
# Conditions: human, HelaM cells, read-out: HELAM (222.125) CC50
# Outline: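 HelaM cells exposed 72 h at 37° C to serial dilutions, typically 25 to 0.8 μM, in 0.5% DMSO. MTT formazan dissolved in 2-propanol, absorbance at 540 nm minus 690 nm; CC50 is concentration halving viability.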
row,Compound,CC50 at 72 h [µg/mL]
1,O=C1CNCc2cc(/C=C/C(=O)N3CC4C=C(c5ccccc5)CC4C3)cnc2N1 (stereo not shown) [Cpd. No. 38],> 10.1
2,O=C1Nc2ncc(/C=C/C(=O)N3CC4C=C(c5nccs5)CC4C3)cc2CN2CCOCC12 (stereo not shown) [Cpd. No. 74],> 11.2
3,O=C1COc2cc(/C=C/C(=O)N3CC4C=C(c5ccccc5)CC4C3)cnc2N1 (stereo not shown) [compound 37],> 9.73

# System: not listed separately
# Test: Thermodynamic solubility (pH solubility profiling)
# Type: physicochemical
# Conditions: aqueous buffer, thermodynamic from solid, Buffer pH 4, ambient temperature
# Procedure: The pH solubility profiling was carried out at ambient temperature for a period of 4 days. A saturation solubility study was carried out in order to determine maximum solubility in a particular buffer solution. The compound was added to respective buffer solution until saturation point is reached. This was followed by shaking the flask for 4 days at ambient temperature. After 4 days, the solutions were filtered and injected on UPLC and the concentration was determined using a generic HPLC method.
row,Compound,solubility thermodynamic at 4 days [µg/mL]
1,O=C1Nc2ncc(/C=C/C(=O)N3CC4C=C(c5nccs5)CC4C3)cc2CN2CCOCC12 (stereo not shown) [Cpd. No. 74],40

# Same assay, conditions: aqueous buffer, thermodynamic from solid, Buffer pH 7.4, ambient temperature
row,Compound,solubility thermodynamic at 4 days [µg/mL]
1,O=C1Nc2ncc(/C=C/C(=O)N3CC4C=C(c5nccs5)CC4C3)cc2CN2CCOCC12 (stereo not shown) [Cpd. No. 74],30

# Same assay, conditions: aqueous with cosolvent or surfactant or cyclodextrin, thermodynamic from solid, 10% HP-β-CD buffer pH 4, ambient temperature
row,Compound,solubility thermodynamic at 4 days [µg/mL]
1,O=C1Nc2ncc(/C=C/C(=O)N3CC4C=C(c5nccs5)CC4C3)cc2CN2CCOCC12 (stereo not shown) [Cpd. No. 74],> 1280

# Same assay, conditions: aqueous with cosolvent or surfactant or cyclodextrin, thermodynamic from solid, 10% HP-β-CD buffer pH 7.4, ambient temperature
row,Compound,solubility thermodynamic at 4 days [µg/mL]
1,O=C1Nc2ncc(/C=C/C(=O)N3CC4C=C(c5nccs5)CC4C3)cc2CN2CCOCC12 (stereo not shown) [Cpd. No. 74],> 1210

# Same assay, conditions: aqueous with cosolvent or surfactant or cyclodextrin, thermodynamic from solid, 20% HP-β-CD buffer pH 4, ambient temperature
row,Compound,solubility thermodynamic at 4 days [µg/mL]
1,O=C1Nc2ncc(/C=C/C(=O)N3CC4C=C(c5nccs5)CC4C3)cc2CN2CCOCC12 (stereo not shown) [Cpd. No. 74],> 2360

# Same assay, conditions: aqueous with cosolvent or surfactant or cyclodextrin, thermodynamic from solid, 20% HP-β-CD buffer pH 7.4, ambient temperature
row,Compound,solubility thermodynamic at 4 days [µg/mL]
1,O=C1Nc2ncc(/C=C/C(=O)N3CC4C=C(c5nccs5)CC4C3)cc2CN2CCOCC12 (stereo not shown) [Cpd. No. 74],> 1330

# Same assay, conditions: pH 2, aqueous with cosolvent or surfactant or cyclodextrin, thermodynamic from solid, 20% HP-β-CD 0.01N HCl, ambient temperature
row,Compound,solubility thermodynamic at 4 days [µg/mL]
1,O=C1Nc2ncc(/C=C/C(=O)N3CC4C=C(c5nccs5)CC4C3)cc2CN2CCOCC12 (stereo not shown) [Cpd. No. 74],> 2360

# Same assay, conditions: pH 2, simulated gastric fluid, thermodynamic from solid, 0.01N HCl, ambient temperature
row,Compound,solubility thermodynamic at 4 days [µg/mL]
1,O=C1Nc2ncc(/C=C/C(=O)N3CC4C=C(c5nccs5)CC4C3)cc2CN2CCOCC12 (stereo not shown) [Cpd. No. 74],670

# System: not listed separately
# Test: In vivo pharmacokinetic and oral bioavailability in mouse
# Parameters: species or system male Swiss mice
# Conditions: i.v., 2.5 mg/kg, 20% HP-β-cyclodextrin
# Procedure: The in vivo pharmacokinetics and oral bioavailability of the compound of the examples were/are investigated in male Swiss mice (fed) following single intravenous (i.v.) bolus and oral (p.o.) administration. For the i.v. and p.o. solution formulations, the compound was/is dissolved in a 20% HP-β-CD solution. The pH of the formulations was/is around pH 4. All i.v. formulations were isotonic.
row,Compound,Vdz [L/kg]
1,O=C1CNCc2cc(/C=C/C(=O)N3CC4C=C(c5ccccc5)CC4C3)cnc2N1 (stereo not shown) [Cpd. No. 38],3.1
2,O=C1COc2cc(/C=C/C(=O)N3CC4C=C(c5ccccc5)CC4C3)cnc2N1 (stereo not shown) [compound 37],1.5

# Same assay, conditions: male, Swiss, plasma, iv, 2.5 mg/kg, 20% HP-β-cyclodextrin
Compound,AUC(0-inf) [ng·h/mL],C0 [ng/mL]
O=C1CNCc2cc(/C=C/C(=O)N3CC4C=C(c5ccccc5)CC4C3)cnc2N1 (stereo not shown) [Cpd. No. 38],2000,–
O=C1COc2cc(/C=C/C(=O)N3CC4C=C(c5ccccc5)CC4C3)cnc2N1 (stereo not shown) [compound 37],7890,3930

# Same assay, conditions: male, Swiss, plasma, iv, 2.5 mg/kg, 20% HP-β-cyclodextrin, read-out: Half life (t1/2) (converted)
row,Compound,half-life [h]
1,O=C1CNCc2cc(/C=C/C(=O)N3CC4C=C(c5ccccc5)CC4C3)cnc2N1 (stereo not shown) [Cpd. No. 38],1.7
2,O=C1COc2cc(/C=C/C(=O)N3CC4C=C(c5ccccc5)CC4C3)cnc2N1 (stereo not shown) [compound 37],3.33

# Same assay, conditions: male, Swiss, plasma, iv, 2.5 mg/kg, 20% HP-β-cyclodextrin, read-out: Plasma clearance Cl (converted)
row,Compound,clearance [mL/min/kg]
1,O=C1CNCc2cc(/C=C/C(=O)N3CC4C=C(c5ccccc5)CC4C3)cnc2N1 (stereo not shown) [Cpd. No. 38],21.7
2,O=C1COc2cc(/C=C/C(=O)N3CC4C=C(c5ccccc5)CC4C3)cnc2N1 (stereo not shown) [compound 37],5.33

# Same assay, conditions: male, Swiss, plasma, po, 5 mg/kg, 20% HP-β-cyclodextrin
Compound,AUC(0-inf) [ng·h/mL],Cmax [ng/mL],Tmax [h]
O=C1COc2cc(/C=C/C(=O)N3CC4C=C(c5ccccc5)CC4C3)cnc2N1 (stereo not shown) [compound 37],15600,2330,1

# Same assay, conditions: male, Swiss, plasma, po, 5 mg/kg, 20% HP-β-cyclodextrin, read-out: Half life (t1/2) (converted)
row,Compound,half-life [h]
1,O=C1COc2cc(/C=C/C(=O)N3CC4C=C(c5ccccc5)CC4C3)cnc2N1 (stereo not shown) [compound 37],3.5

# Same assay, conditions: male, Swiss, plasma, po, 10 mg/kg, 20% HP-β-cyclodextrin
Compound,AUC(0-inf) [ng·h/mL],Cmax [ng/mL],Tmax [h]
O=C1CNCc2cc(/C=C/C(=O)N3CC4C=C(c5ccccc5)CC4C3)cnc2N1 (stereo not shown) [Cpd. No. 38],2860,665,1.7

# Same assay, conditions: male, Swiss, plasma, po, 10 mg/kg, 20% HP-β-cyclodextrin, read-out: Half life (t1/2) (converted)
row,Compound,half-life [h]
1,O=C1CNCc2cc(/C=C/C(=O)N3CC4C=C(c5ccccc5)CC4C3)cnc2N1 (stereo not shown) [Cpd. No. 38],2.2

# Same assay, conditions: male, Swiss, plasma, po, p.o. 5 mg/kg vs i.v. 2.5 mg/kg
row,Compound,bioavailability [%]
1,O=C1COc2cc(/C=C/C(=O)N3CC4C=C(c5ccccc5)CC4C3)cnc2N1 (stereo not shown) [compound 37],98

# Same assay, conditions: male, Swiss, plasma, po, p.o. 10 mg/kg vs i.v. 2.5 mg/kg
row,Compound,bioavailability [%]
1,O=C1CNCc2cc(/C=C/C(=O)N3CC4C=C(c5ccccc5)CC4C3)cnc2N1 (stereo not shown) [Cpd. No. 38],36

# System: S. aureus strain ATCC 29213
# Test: In vivo efficacy, peritonitis model of S. aureus infection
# Conditions: female Swiss albino mice, IP infection, inoculum 8.7 log10, IV, QD, 2.5 mpk, 20% CD + 2H2T, 3 days post-infection
# Excerpt: The concept of studying the in vivo effect of an antibacterial compound by treating intraperitoneally infected mice was introduced in 1911 for optochin against pneumococci (Morgenroth and Levy, 1911). The popularity of the model comes from the ease of its use with short-duration experiments, reproducible infections and simple end-points.
# Methicillin-sensitive S. aureus strain ATCC 29213 was used to infect female Swiss albino mice. A Brain Heart Infusion (BHI) broth bacterial culture was inoculated the day before infection, incubated at 37° C. overnight and diluted in fresh BHI broth to the desired concentration. Intraperitoneal (i.p.) injection of ˜5×10^9 colony forming units (CFU) was performed in either of the lateral lower quadrants of the abdomen. After inoculation, mice were kept in their cages under daily observation for development of signs of infection or death. For the treatment of mice, the p.o. route was used and each mouse was treated individually by gavage. Example of Cpd No. 48 was formulated as a 20% HP-β-cyclodextrin and example of Cpd No. 38 was formulated as a water/Tween-20 suspension. The parameter used for monitoring the course of infection and the effect of treatment was death or survival of the animals over 3 days post-infection. As death could also be due to toxic side effects, a non-infected control group of 3 mice, treated with the highest dose of the compound tested, was included.
row,Compound,% Survival [%]
1,O=C1CNCc2cc(/C=C/C(=O)N3CC4C=C(c5ccccc5)CC4C3)cnc2N1 (stereo not shown) [Cpd. No. 38],75

# Same assay, conditions: female Swiss albino mice, IP infection, inoculum 8.7 log10, IV, QD, 5 mpk, 20% CD + 2H2T, 3 days post-infection
row,Compound,% Survival [%]
1,O=C1CNCc2cc(/C=C/C(=O)N3CC4C=C(c5ccccc5)CC4C3)cnc2N1 (stereo not shown) [Cpd. No. 38],100

# System: not given
# Test: not given
# Conditions: not given
row,Compound,melting point [°C]
1,O=C1Nc2ncc(/C=C/C(=O)N3CC4C=C(c5nccs5)CC4C3)cc2CN2CCOCC12 (stereo not shown) [Cpd. No. 74],> 260
2,O=C1COc2cc(/C=C/C(=O)N3CC4C=C(c5ccccc5)CC4C3)cnc2N1 (stereo not shown) [compound 37],> 260
